According to article PMC11229689, “In Vitro Selection of Macrocyclic L-α/D-α/β/γ-Hybrid Peptides Targeting IFN-γ/IFNGR1 Protein–Protein Interaction” (Journal of the American Chemical Society, 2024):
Like-named read-outs stand apart in the source and are kept apart here. *1 amine or outer side, *2 acyl side, *3 side chain or, on linkers, in order; H or OH if unused. Where a SMILES comes first, the peptide text is derived from it. Bridges are numbered along the chain shown (N, C = ends). [ ]: non-standard residue; d: D form. Acbc(trans-1,3) = O=C([C@H]1C[C@H](N[*:1])C1)[*:2]; Acbc(cis-1,3) = O=C([C@H]1C[C@@H](N[*:1])C1)[*:2]; X1 = O=C([C@@H]1CCC[C@@H]1N[*:1])[*:2]; Orn = NCCC[C@H](N)C(=O)O

How the values were obtained:
[1] = Serum stability assay (LC/MS); type: in vitro ADME, human; settings: for half-life: human
Method: (§1) Binding affinities of IA1 and IA2 against IFNGR1 were evaluated by surface plasmon resonance (SPR) (Table 1 and SI Figure S6A). […] To investigate the contribution of the N-terminal [yVPβ^1RR] motif and β^1 residue in IA1, three scrambled peptides IA1s1–3 and a variant IA1β^14A were synthesized and evaluated. […] We next evaluated inhibitory activities of IA1 and IA2 against the ligand–receptor PPI between IFN-γ and IFNGR1 using AlphaLISA (Table 1 and SI Figure S7).[37] […] We also determined the serum half-lives of IA1 and IA2, considering peptidase resistance as an important factor for therapeutic peptides.[24] A sample peptide and a peptidase-resistant internal standard peptide were coincubated in human serum at 37 °C, and the relative amount of the remaining sample peptide was estimated by LC/MS. […]
10–200 μM synthetic peptide and 5 μM serum-resistant internal standard peptide consisting only of D-amino acids (NH2-PEG5-wstndwstnd-PEG5-CONH2)3 were mixed and incubated in human serum (Cosmo Bio, 12181201) at 37 °C for up to 120 h. At each time point, 4 μL of the mixture was removed and quenched by adding 12 μl methanol. Following centrifugation (15,000 g, 4 °C, 5 min), 10 μL of the supernatant was mixed with 40 μl of 1% (v/v) TFA. Following centrifugation (15,000 g, 4 °C, 5 min), the supernatant was collected for LC/MS analysis, which used a reverse-phase column (ACQUITY UPLC BEH C18, 1.7 μm, 2.1 × 150 mm; Waters) and a Xevo G2-XS QTof system (Waters) with a linear gradient from 1% B to 61% B. Buffer A was water with 0.1% (v/v) formic acid; buffer B was acetonitrile with 0.1% (v/v) formic acid. The percentages of remaining peptides were determined by the peak area integration of the chromatograms. For tandem mass spectrometry, MS/MS spectra were acquired with a 0.2 s scan time, with 10−30 eV collision energy. The obtained LC/MS data was analyzed using MassLynx 4.1 (Waters). […]

Fc-tagged human IFNGR1 = biological target: T1, Fc-tagged human IFNGR1 (Homo sapiens, UniProt P15260); assay: Binding kinetics and affinity to IFNGR1 by surface plasmon resonance (SPR); settings: SPR, 25 °C, 1:1 binding model; for Kd: read-out: KD; for kon: single-cycle kinetics, read-out: ka
T1 construct: purchased ACROBiosystems
T1 sequence (P15260 18-489): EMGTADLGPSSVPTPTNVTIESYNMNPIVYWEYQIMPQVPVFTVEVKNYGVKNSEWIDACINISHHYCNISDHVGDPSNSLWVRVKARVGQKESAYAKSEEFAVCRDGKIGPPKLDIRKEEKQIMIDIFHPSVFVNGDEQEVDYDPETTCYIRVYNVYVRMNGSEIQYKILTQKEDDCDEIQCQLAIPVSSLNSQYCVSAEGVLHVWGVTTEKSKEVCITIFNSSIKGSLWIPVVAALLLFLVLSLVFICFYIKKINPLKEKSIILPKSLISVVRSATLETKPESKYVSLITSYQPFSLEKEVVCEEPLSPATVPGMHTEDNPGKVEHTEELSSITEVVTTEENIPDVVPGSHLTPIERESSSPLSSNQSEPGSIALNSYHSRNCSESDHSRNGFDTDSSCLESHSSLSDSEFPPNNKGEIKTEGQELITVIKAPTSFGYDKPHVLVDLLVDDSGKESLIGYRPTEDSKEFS
Method: as §1
Evaluation of binding affinity of peptides by surface plasmon resonance The binding affinities of selected peptides and IFNGR1 were analyzed by surface plasmon resonance (SPR) using a Biacore T200 instrument (Cytiva) at 25 °C with the following running buffer: 10 mM Tris-HCl (pH 8.0), 150 mM NaCl, 0.05% (v/v) Tween 20 , and 0.1% (v/v) DMSO. Fc-tagged IFNGR1 was immobilized on a series S sensor chip protein G (Cytiva) to a surface density of 1,200–1,600 response units following the immobilization protocols provided by Cytiva. The kinetic constants were determined by a single-cycle kinetics method by the injection of five different concentrations (twofold dilution series) of each peptide at a flow rate of 30 μL/min. The resulting sensorgrams were fitted to the standard 1:1 interaction model and analyzed using Biacore evaluation software. […]

[2] = biological target: T2, IFN-γ/IFNGR1 protein–protein interaction (Homo sapiens, UniProt P15260); assay: IFNGR1 inhibition assay using AlphaLISA; type: biochemical; settings: four-parameter dose–response fit, n = 3
T2 construct: purchased ACROBiosystems
T2 sequence (P15260 18-245 limits assumed): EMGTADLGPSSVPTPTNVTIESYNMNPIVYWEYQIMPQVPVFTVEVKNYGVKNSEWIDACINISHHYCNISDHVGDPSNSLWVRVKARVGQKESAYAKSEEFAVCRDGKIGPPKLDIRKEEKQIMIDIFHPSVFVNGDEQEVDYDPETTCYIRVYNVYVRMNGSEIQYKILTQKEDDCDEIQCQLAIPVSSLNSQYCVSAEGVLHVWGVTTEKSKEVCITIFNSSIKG
Method: IFNGR1 inhibition assay using AlphaLISA
The inhibitory activity of peptides against IFN-γ/IFNGR1 protein–protein interaction (PPI) was determined by AlphaLISA.5 Peptides, proteins, and beads were diluted in AlphaLISA immunoassay buffer (PerkinElmer, AL000C). 3.6 μL of 5 nM Fc-tagged IFNGR1 and 3.6 μL of synthetic peptides were mixed in AlphaPlate-384 Shallow Well (PerkinElmer) and preincubated at 25 °C for 10 min. 3.6 μL of 15 nM biotin-tagged IFN-γ was then added to the mix and incubated at 25 °C for 20 min. 3.6 μL each human IgG acceptor beads (PerkinElmer) and streptavidin donor beads (PerkinElmer) were added to the above mix and incubated at 25 °C for 30 min in dark place. Emission at 615 nm was measured […]
by EnSpire Multimode Plate Reader (PerkinElmer). The fraction of bound IFN-γ/IFNGR1 was calculated by the intensity of emission in the presence of peptide divided by that in the absence of […]
peptide. […]
Puromycin. Normocin, Blasticidin, Zeocin, and Puromycin were excluded when conducting the experiments. To evaluate the cellular activity of peptides, peptide mixtures were added to 50,000 cells/well in a flat-bottom 96-well plate and pre-incubated for 30 min at 37 °C before stimulation.
Subsequently, 1 ng/mL of recombinant IFN-γ (InvivoGen) was added to each well in a final reaction volume of 200 μL, followed by incubation for 20 h at 37 °C. 20 μL of supernatants from the induced cells was added to 180 μL Q U A N T I-Blue TM solution (InvivoGen). After further incubation for 3 h at 37 °C, the expression levels of the secreted embryonic alkaline phosphatase (SEAP) were determined by reading the O.D. at 650 nm on a Tecan M1000 PRO microplate reader (Tecan Group) and normalized to the non-treated well. IC50 value was analyzed by a normalized dose-response curve fitting by using GraphPad Prism 9.
HEK-DualTM IFN-γ cells were used for the cell viability assay. 10,000 cells/well were added to each well in a flat-bottom 96-well plate. After 24 h, peptide mixtures were added to each well in a final volume of 100 μL. After further incubation for 24 h, 10 μL CCK-8 reagent (Dojindo) was added to […]

[3] = human serum, 37 °C, LC/MS, relative to internal standard peptide, n = 3
[4] = human serum, 37 °C, LC/MS, relative to internal standard peptide, n = 3, read-out: half-life in human serum (t1/2) (converted)
[5] = serum, half-life in human serum (t1/2)

Structure (SMILES)	half-life in human serum (t1/2) [1, 3] [h]	half-life [1, 4] [h]	Kd (Fc-tagged human IFNGR1) [nM]	kon (Fc-tagged human IFNGR1) [M⁻¹ s⁻¹]	IC50 [2] [nM]	half-life [1, 5] [h]
CC(C)[C@@H]1NC(=O)[C@@H](Cc2ccc(O)cc2)NC(=O)CSC[C@H](C(N)=O)NC(=O)[C@H](CC(N)=O)NC(=O)[C@H]2C[C@@H](C2)NC(=O)[C@H](CCCNC(=N)N)NC(=O)[C@@H]2CCCN2C(=O)[C@H]([C@@H](C)O)NC(=O)[C@H](CCCNC(=N)N)NC(=O)[C@H](CCCNC(=N)N)NC(=O)[C@H](CO)NC(=O)[C@H](CCCNC(=N)N)NC(=O)[C@H](CCCNC(=N)N)NC(=O)[C@@H]2CCC[C@@H]2NC(=O)[C@@H]2CCCN2C1=O [IB4, ^AcyVPβ^1RRSRRTPRγ^2Nc-NH2] ({CH2CO}-[dY]VP[X1]RRSRRTPR[Acbc(trans-1,3)]N[dC]-NH2; thioether N-15)	1.1 ± 0.0	< 1.3	22 ± 11	160000 ± 190000	47 ± 15	–
CC(C)[C@@H]1NC(=O)[C@@H](Cc2ccc(O)cc2)NC(=O)CSC[C@H](C(N)=O)NC(=O)[C@H](CC(N)=O)NC(=O)[C@H](C)NC(=O)[C@H](CCCNC(=N)N)NC(=O)[C@@H]2CCCN2C(=O)[C@H]([C@@H](C)O)NC(=O)[C@H](CCCNC(=N)N)NC(=O)[C@H](CCCNC(=N)N)NC(=O)[C@H](CO)NC(=O)[C@H](CCCNC(=N)N)NC(=O)[C@H](CCCNC(=N)N)NC(=O)[C@@H]2CCC[C@@H]2NC(=O)[C@@H]2CCCN2C1=O [IB4γ^213A, ^AcyVPβ^1RRSRRTPRA Nc-NH2] ({CH2CO}-[dY]VP[X1]RRSRRTPRAN[dC]-NH2; thioether N-15)	–	0.46 ± 0.05	8.2 ± 1.4	790000 ± 330000	7.8 ± 1.6	–
CC(C)[C@@H]1NC(=O)[C@@H](Cc2ccc(O)cc2)NC(=O)CSC[C@H](C(N)=O)NC(=O)[C@H](C)NC(=O)[C@H](Cc2c[nH]cn2)NC(=O)[C@H](CCCNC(=N)N)NC(=O)[C@H](CCCNC(=N)N)NC(=O)CNC(=O)[C@H]2C[C@H](C2)NC(=O)[C@H](Cc2c[nH]cn2)NC(=O)[C@H](CC(N)=O)NC(=O)[C@H](CCCNC(=N)N)NC(=O)[C@H](CCCNC(=N)N)NC(=O)[C@@H]2CCC[C@@H]2NC(=O)[C@H](C)NC1=O [IB2, ^AcyVAβ^1RRNHγ^1GRRHAc-NH2] ({CH2CO}-[dY]VA[X1]RRNH[Acbc(cis-1,3)]GRRHA[dC]-NH2; thioether N-15)	1.3 ± 0.1	< 1.3	31 ± 8	200000 ± 90000	79 ± 11	–
CC(C)[C@@H]1NC(=O)[C@@H](Cc2ccc(O)cc2)NC(=O)CSC[C@H](C(N)=O)NC(=O)[C@H](C)NC(=O)[C@H](CO)NC(=O)[C@H](CCCN)NC(=O)[C@H](CCCN)NC(=O)CNC(=O)[C@H]2C[C@H](C2)NC(=O)[C@H](Cc2c[nH]cn2)NC(=O)[C@H](CC(N)=O)NC(=O)[C@H](CCCNC(=N)N)NC(=O)[C@H](CCCNC(=N)N)NC(=O)[C@@H]2CCC[C@@H]2NC(=O)[C@H](C)NC1=O [IB3Orn, ^AcyVAβ^1RRNHγ^1GOOSAc-NH2] ({CH2CO}-[dY]VA[X1]RRNH[Acbc(cis-1,3)]G[Orn][Orn]SA[dC]-NH2; thioether N-15)	–	–	34 ± 5	950000 ± 680000	70 ± 4	42 ± 2
CC(C)[C@@H]1NC(=O)[C@@H](Cc2ccc(O)cc2)NC(=O)CSC[C@H](C(N)=O)NC(=O)[C@H](CCCNC(=N)N)NC(=O)[C@H](CO)NC(=O)[C@H](CCCNC(=N)N)NC(=O)[C@H](Cc2c[nH]cn2)NC(=O)CNC(=O)[C@H]2C[C@@H](C2)NC(=O)[C@H](Cc2c[nH]cn2)NC(=O)[C@H](CC(N)=O)NC(=O)[C@H](CCCNC(=N)N)NC(=O)[C@H](CCCNC(=N)N)NC(=O)[C@@H]2CCC[C@@H]2NC(=O)[C@H](C)NC1=O [IB1γ^19γ^2, ^AcyVAβ^1RRNHγ^2GHRSRc-NH2] ({CH2CO}-[dY]VA[X1]RRNH[Acbc(trans-1,3)]GHRSR[dC]-NH2; thioether N-15)	–	0.77 ± 0.02	47 ± 15	250000 ± 250000	550 ± 30	–
CC(C)[C@@H]1NC(=O)[C@@H](Cc2ccc(O)cc2)NC(=O)CSC[C@H](C(N)=O)NC(=O)[C@H](CCCN)NC(=O)[C@H](CO)NC(=O)[C@H](CCCN)NC(=O)[C@H](Cc2c[nH]cn2)NC(=O)CNC(=O)[C@H]2C[C@H](C2)NC(=O)[C@H](Cc2c[nH]cn2)NC(=O)[C@H](CC(N)=O)NC(=O)[C@H](CCCNC(=N)N)NC(=O)[C@H](CCCNC(=N)N)NC(=O)[C@@H]2CCC[C@@H]2NC(=O)[C@H](C)NC1=O [IB1Orn, ^AcyVAβ^1RRNHγ^1GHOSOc-NH2] ({CH2CO}-[dY]VA[X1]RRNH[Acbc(cis-1,3)]GH[Orn]S[Orn][dC]-NH2; thioether N-15)	–	–	11 ± 3	1.4e+06 ± 900000	17 ± 3	33 ± 1
CC(C)[C@@H]1NC(=O)[C@@H](Cc2ccc(O)cc2)NC(=O)CSC[C@H](C(N)=O)NC(=O)[C@H](CC(N)=O)NC(=O)[C@H](CO)NC(=O)[C@H](CCCNC(=N)N)NC(=O)[C@H](CO)NC(=O)[C@H]2C[C@@H](C2)NC(=O)[C@H](CC(N)=O)NC(=O)[C@H]([C@@H](C)O)NC(=O)[C@H](Cc2c[nH]cn2)NC(=O)[C@H](CCCNC(=N)N)NC(=O)[C@H](CCCNC(=N)N)NC(=O)[C@@H]2CCC[C@@H]2NC(=O)[C@@H]2CCCN2C1=O [IA2, ^AcyVPβ^1RRHTNγ^2SRSNc-NH2] ({CH2CO}-[dY]VP[X1]RRHTN[Acbc(trans-1,3)]SRSN[dC]-NH2; thioether N-15)	–	> 2.6	150 ± 40	120000 ± 50000	330 ± 20	–
